Patent US7713690B1, “Luminous bacteria and methods for the isolation, identification and quantitation of toxicants” (priority 1991, dated 2010)

Key:
Vibrio fischeri [1] = assay: Metals spotted on chromatography paper sheet, dried, exposed to luminescent bacteria; type: cell-based; conditions: no chromatography separation
Excerpt: Upon spotting of the various metals along one side of a chromatography paper sheet, the sample spots were allowed to dry. Upon drying, the spotted sheets were exposed to the luminescent bacteria Vibrio fischeri.

Vibrio fischeri [2] = assay: Inhibition of luminescence of luminescent bacteria (general statements); type: cell-based

For lead, the “visualization of heavy metal salts by luminescent bacteria” value (shortened to “visualization of heavy metal salts”) (Vibrio fischeri [1]) was “able to visualize the presence”.

For [Ca+2] [calcium ion], the “inhibition of luminescence of Vibrio fischeri” value (Vibrio fischeri [2]) was “Neither does the luminescence of the Vibrio fischeri appear to be immediately inhibited”.

With [Cd] [cadmium] the “visualization of heavy metal salts” value (Vibrio fischeri [1]) was “able to visualize the presence”.

With mercury the “visualization of heavy metal salts” value (Vibrio fischeri [1]) was “able to visualize the presence”.
